Measurements reported in patent publication US7410955B2, “Therapeutic use of agonist ligands specific to G2A receptor” (Biosynergen, Inc., priority 2002, dated 2008).

What was measured:
neutrophils = assay: Inhibition of anti-apoptosis of neutrophils by inflammation mediators (AcOr/EtBr staining); type: cell-based, human; conditions: 15 μM and 30 μM, 1 hour before 1 μg/ml LPS, read after 24 hours
From the text: Neutrophils were isolated from healthy adults using discontinuous percoll gradient according to the method of Szucs, S. et al. (J. Immunol. Methods, 167: 245-251, 1994). First, plasmas were separated from heparinized whole blood, and red blood cells were depleted by dextran sedimentation. Thereafter, leukocytes were layered over a percoll gradient with densities of 1.077 and 1.094 (Pharmacia, Sweden). Separated neutrophil layers were recovered from the percoll gradient interface, and then washed with HBSS (Hank's balanced salt solution, Sigma Chemical Co., USA). The remaining pellet was resuspended in RPMI 1640 medium supplemented with 10% FBS (fetal bovine serum) and 2 mM gentamicin. As a result of the examination of the cytospin stained with Wright-Giemsa (Sigma Chemical Co., USA), it was observed that the resuspension solution contained 95% or more neutrophils. Also, as a result of examination using trypan blue dye exclusion method, 98% or more neutrophils were observed.
1×10^5 neutrophil cells isolated in above Example <1-1> were cultured in a 96-well plate to which RPMI1640 medium containing 10% FBS was added. Thereafter, they were treated with 1-stearoyl lysophosphatidylcoline (Sigma Chemical Co., USA) in concentrations of 15 μM and 30 μM, respectively. After 1 hour, they were treated with 1 μg/ml LPS (Sigma Chemical Co.). After 24 hours, the medium was removed from the plats, and the remaining cells were washed twice with PBS (phosphate-buffered saline) buffer at 4° C. The cells adhered to the bottom of the plate were all scraped and put into a 1.5-ml eppendorf tube. Then, they were centrifuged at 2500 rpm for 5 min, and the supernatant was removed. Again, 0.1 ml of PBS buffer at 4° C. was added to the pellet, which was then well mixed using pipetting. To 25 μl of the cell suspension was added 2 μl of AcOr/EtBr dye solution in which 100 μg/ml of acridine orange (AcOr) and 100 μg/ml of ethidium bromide (EtBr) were mixed. Then, the percentage of apoptotic cells/total cells was calculated with observing the neutrophil cells under a fluorescence microscope. […]

G2A = molecular target: T1, G2A (Homo sapiens, UniProt Q9UNW8); conditions: reported by Kabarowski et al., Science 2001; cited from earlier work
T1 sequence (Q9UNW8 1-380): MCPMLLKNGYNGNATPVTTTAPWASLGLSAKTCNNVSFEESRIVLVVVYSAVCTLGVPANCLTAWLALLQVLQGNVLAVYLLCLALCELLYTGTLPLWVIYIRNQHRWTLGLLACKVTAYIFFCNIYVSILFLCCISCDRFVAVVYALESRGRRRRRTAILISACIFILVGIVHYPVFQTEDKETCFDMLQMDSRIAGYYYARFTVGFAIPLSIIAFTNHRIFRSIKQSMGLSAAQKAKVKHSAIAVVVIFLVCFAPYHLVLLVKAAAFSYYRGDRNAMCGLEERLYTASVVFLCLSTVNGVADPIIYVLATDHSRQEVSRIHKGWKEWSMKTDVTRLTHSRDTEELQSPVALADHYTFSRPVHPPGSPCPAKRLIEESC

CLP-induced Sepsis model = assay: CLP-induced sepsis model; type: in vivo, ICR mice; conditions: 10 mg/kg intraperitoneal, same methods as Example 6-2 (four times at 12 hour intervals, 2 hours after CLP)
Procedure: After ICR mice (25-30 g in body weight; MJ Ltd.) had been anesthetized with pentobarbital, right abdominal sites of the mice were dissected in a length of 1 cm to expose their cecum, and sites below the ileocecal valve were ligated. And then, after 4˜6 punctures had been created on the cecum with 21-gauge needle, the abdomen was sutured again to cause peritonitis, thereby inducing Sepsis.
After the peritoneal cavity of mice had been exposed, it was washed with sterilized saline (2 ml). The resultant solution was diluted with HBSS (Sigma Chemical Co., USA) in a ratio of 1/1000, and then 10 μl of each diluted solution was spread on Trypticase Soy agar (BBL, Becton Dickinson Co., USA) plates. After overnight incubation at 37° C., colony forming unit (CFU) was measured.
7 mice were administered with 1-stearoyl LPC (Sigma Chemical Co., USA) dissolved in 1% BSA solution containing no fatty acid in an amount of 10 mg/kg by subcutaneous injection 2 and 14 hours after the CLP surgery, respectively (experimental group). The remaining 7 mice were administered with 1% BSA solution containing no fatty acid of the same amount as above in the same manner (control group). The numbers of intraperitoneal E. coli cells in the ICR mice of experimental and control groups were measured in accordance with Reference Example 3, 24 hours after the CLP surgery.
Each 10 ICR mice were intraperitoneally administered with 1-stearoyl LPC (Sigma Chemical Co., USA) dissolved in 1% BSA solution containing no fatty acid in amounts of 5, 10, and 20 mg/kg, respectively, four times at intervals of 12 hours, 2 hours after the CLP surgery (experimental group-1, -2 and -3). The remaining 10 ICR mice were administered only with 1% BSA solution containing no fatty acid (control group). And then, the survival rates of mice in experimental- and control groups were investigated over the lapse of time.
10 mice for the experimental group were intraperitoneally administered with 1-stearoyl LPC (Sigma Chemical Co., USA) dissolved in 1% BSA solution containing no fatty acid in an amount of 10 mg/kg, four times at intervals of 12 hours, 10 hours after the CLP surgery. The remaining 10 mice for the control group were administered only with 1% BSA solution containing no fatty acid. Thereafter, the survival rates of ICR mice in experimental- and control groups were investigated over the lapse of time.
CLP-induced Sepsis model mice were subcutaneously injected with SPC, instead of 1-stearoyl LPC, in dosages of 3 mg/kg and 30 mg/kg four times at intervals of 12 hours, 2 hours after the CLP surgery, respectively. The survival rates of mice were investigated.

Compound	percentage of neutrophil apoptosis (apoptotic cells/total cells) that had been decreased by LPS (neutrophils)	affinity of G2A to the ligand (G2A)	therapeutic effect against Sepsis (survival) (CLP-induced Sepsis model)
CCCCCCCCCCCCC/C=C/[C@@H](O)[C@@H](N)COP(=O)([O-])OCC[N+](C)(C)C [SPC, sphingosylphosphorylcholine]	increased by SPC in a concentration-dependent manner	low affinity	
lysophosphatidylcholine		high affinity	
CCCCCCCC/C=C\CCCCCCCC(=O)OCC(O)COP(=O)([O-])OCC[N+](C)(C)C (centres unmarked) [1-oleoyl LPC, 1-oleoyl (18:1) lysophosphatidylcholine]			excellent therapeutic effect
CCCCCCCCCCCCCC(=O)OC[C@@H](O)COP(=O)([O-])OCC[N+](C)(C)C [1-myristoyl LPC, 1-myristoyl (14:0) lysophospatidylcholine]			excellent therapeutic effect
